Measurements published in patent US20080009418A1, “Selective Inhibitors” (Alchemia LTD., priority 2004, published 2008).

Key:
Settings in all cases: compound at 10 μM
Mouse urotensin (mUR2) = target: T1, Mouse urotensin (mUR2) (Mus musculus, UniProt Q8VIH9); test: Radioligand binding, mouse urotensin mUR2 membranes, FlashPlate, [125I]-Urotensin II
T1 construct: purchased Perkin Elmer Biosignal
T1 sequence (Q8VIH9 1-385): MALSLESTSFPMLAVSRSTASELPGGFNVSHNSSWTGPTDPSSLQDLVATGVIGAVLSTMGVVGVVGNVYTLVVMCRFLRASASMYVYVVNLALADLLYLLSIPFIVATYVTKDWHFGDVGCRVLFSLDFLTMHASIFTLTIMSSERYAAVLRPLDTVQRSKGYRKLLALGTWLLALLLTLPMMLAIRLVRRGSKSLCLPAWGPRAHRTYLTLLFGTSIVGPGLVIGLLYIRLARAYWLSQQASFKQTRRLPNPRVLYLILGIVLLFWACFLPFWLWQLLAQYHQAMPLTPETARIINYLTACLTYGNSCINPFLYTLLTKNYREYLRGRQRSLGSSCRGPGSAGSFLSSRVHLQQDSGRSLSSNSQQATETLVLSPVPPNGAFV
Method in brief: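 Cloned mouse urotensin (mUR2) receptor membranes from Perkin Elmer Biosignal were immobilized in FlashPlate microplates using a proprietary coating. Each well got 19.5 μl buffer, then 0.5 μl of DMSO, reference ligand, or compound. Adding 5 μl of [125I]-Urotensin II, diluted to 5× final concentration in binding buffer, started binding. Plates were sealed with TopSeal-A and incubated 1 hour at room temperature in the dark. Wells were counted for 30 seconds each on a TopCount after a 60-second delay, and percentage inhibition was calculated.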

Human δ-opioid (DOP) = target: T2, Human δ-opioid (DOP) (Homo sapiens, UniProt P41143); test: Radioligand binding, human δ-opioid (DOP) membranes, FlashPlate, [3H]-Bremazocine
T2 construct: purchased Perkin Elmer Biosignal
Method in brief: (§1)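 Cloned human receptor membranes were coated onto FlashPlate wells and incubated with radioligand and compound (added from a 0.5 mM DMSO daughter plate) for 1 hour at room temperature in the dark. Scintillation counting gave percent inhibition, with DMSO defining total and reference ligand defining non-specific binding.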

Human κ-Opioid (KOP) = target: T3, Human κ-Opioid (KOP) (Homo sapiens, UniProt P41145); test: Radioligand binding, human κ-opioid (KOP) membranes, filtration, [3H]-Diprenorphine
T3 construct: purchased Perkin Elmer Biosignal
Method in brief: (§2)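 Filtration binding on cloned human receptor membranes (1 Unit/well), [125I]-Substance P for NK1 and [3H]-Diprenorphine for KOP, 1 h at room temperature. Filters PEI-presoaked, washed with cold 50 mM Tris-HCl pH 7.4, counted by scintillation; percent inhibition calculated, reference ligand defining non-specific binding.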

[1] = target: T4, Human neuropeptide Y (NPY-Y1) (Homo sapiens, UniProt P25929); test: Radioligand binding, human neuropeptide Y NPY-Y1 membranes, FlashPlate, [125I]-PYY
T4 construct: purchased Perkin Elmer Biosignal
T4 sequence (P25929 1-384): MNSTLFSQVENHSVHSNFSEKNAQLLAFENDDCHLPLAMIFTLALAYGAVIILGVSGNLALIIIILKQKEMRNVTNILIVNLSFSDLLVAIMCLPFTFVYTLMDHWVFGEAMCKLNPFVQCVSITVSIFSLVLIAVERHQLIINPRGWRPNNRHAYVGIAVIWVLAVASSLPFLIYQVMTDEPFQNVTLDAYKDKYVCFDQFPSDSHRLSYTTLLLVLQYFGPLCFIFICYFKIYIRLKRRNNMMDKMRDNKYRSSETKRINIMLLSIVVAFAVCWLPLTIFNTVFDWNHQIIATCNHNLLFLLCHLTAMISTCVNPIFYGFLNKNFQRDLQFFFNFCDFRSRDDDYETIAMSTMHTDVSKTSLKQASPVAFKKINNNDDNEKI
Method in brief: as §1

Human Melanocortin (MC4) = target: T5, Human Melanocortin (MC4) (Homo sapiens, UniProt P32245); test: Radioligand binding, human melanocortin MC4 membranes, FlashPlate, [125I]-NDP-αMSH
T5 construct: purchased Perkin Elmer Biosignal
Method in brief: as §1

Human μ-opioid (MOP) = target: T6, Human μ-opioid (MOP) (Homo sapiens, UniProt P35372); test: Radioligand binding, human μ-opioid (MOP) membranes, FlashPlate, [3H]-Naloxone
T6 construct: purchased Perkin Elmer Biosignal
Method in brief: as §1

[2] = target: T7, Human melanin-concentrating hormone (MCH1) (Homo sapiens, UniProt Q99705); test: Radioligand binding, human melanin-concentrating hormone MCH1 membranes, FlashPlate, [125I]-S36057
T7 construct: purchased Perkin Elmer Biosignal
Method in brief: as §1

Human neurokinin (NK1) = target: T8, Human neurokinin (NK1) (Homo sapiens, UniProt P25103); test: Radioligand binding, human neurokinin NK1 membranes, filtration, [125I]-Substance P
T8 construct: purchased Perkin Elmer Biosignal
Method in brief: as §2

Human melanocortin (MC5) = target: T9, Human melanocortin (MC5) (Homo sapiens, UniProt P33032); test: Radioligand binding, human melanocortin MC5 membranes, FlashPlate, [125I]-NDP-αMSH
T9 construct: purchased Perkin Elmer Biosignal
Method in brief: as §1

Human opioid (ORL1) = target: T10, Human opioid (ORL1) (Homo sapiens, UniProt P41146); test: Radioligand binding, human opioid ORL1 membranes, FlashPlate, [125I]-Nociceptin
T10 construct: purchased Perkin Elmer Biosignal
Method in brief: as §1

Human Melanocortin (MC3) = target: T11, Human Melanocortin (MC3) (Homo sapiens, UniProt P41968); test: Radioligand binding, human melanocortin MC3 membranes, FlashPlate, [125I]-NDP-αMSH
T11 construct: purchased Perkin Elmer Biosignal
Method in brief: as §1

T8 sequence (P25103 whole entry): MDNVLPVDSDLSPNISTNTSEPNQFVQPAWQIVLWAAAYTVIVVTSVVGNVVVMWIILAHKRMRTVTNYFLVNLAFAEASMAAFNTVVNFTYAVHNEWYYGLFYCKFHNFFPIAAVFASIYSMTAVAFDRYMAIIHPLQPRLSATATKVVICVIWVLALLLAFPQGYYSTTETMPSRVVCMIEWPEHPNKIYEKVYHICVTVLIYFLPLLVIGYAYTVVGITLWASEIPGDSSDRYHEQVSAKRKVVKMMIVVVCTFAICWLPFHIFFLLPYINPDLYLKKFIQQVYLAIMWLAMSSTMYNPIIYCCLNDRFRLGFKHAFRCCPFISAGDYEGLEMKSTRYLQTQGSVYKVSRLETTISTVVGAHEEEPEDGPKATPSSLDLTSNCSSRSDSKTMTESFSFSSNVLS
T3 sequence (P41145 whole entry): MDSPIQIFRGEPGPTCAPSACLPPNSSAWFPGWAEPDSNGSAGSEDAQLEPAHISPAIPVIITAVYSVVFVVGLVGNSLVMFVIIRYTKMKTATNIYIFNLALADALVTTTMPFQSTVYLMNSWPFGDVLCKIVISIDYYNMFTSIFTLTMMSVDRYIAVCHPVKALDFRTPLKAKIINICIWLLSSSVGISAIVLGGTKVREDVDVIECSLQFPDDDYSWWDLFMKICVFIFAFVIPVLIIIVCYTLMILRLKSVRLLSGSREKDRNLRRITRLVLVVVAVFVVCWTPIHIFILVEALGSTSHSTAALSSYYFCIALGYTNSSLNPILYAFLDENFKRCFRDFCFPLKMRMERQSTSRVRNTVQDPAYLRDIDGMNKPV
T11 sequence (P41968 whole entry): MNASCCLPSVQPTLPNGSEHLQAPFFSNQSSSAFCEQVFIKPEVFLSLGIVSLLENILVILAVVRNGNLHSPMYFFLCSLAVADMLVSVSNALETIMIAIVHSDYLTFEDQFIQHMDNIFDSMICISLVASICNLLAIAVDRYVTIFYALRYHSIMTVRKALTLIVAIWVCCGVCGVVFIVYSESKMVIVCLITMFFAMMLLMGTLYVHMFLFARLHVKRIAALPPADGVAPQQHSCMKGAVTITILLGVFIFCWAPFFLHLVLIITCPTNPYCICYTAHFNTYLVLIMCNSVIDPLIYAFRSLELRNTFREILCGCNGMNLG
T9 sequence (P33032 whole entry): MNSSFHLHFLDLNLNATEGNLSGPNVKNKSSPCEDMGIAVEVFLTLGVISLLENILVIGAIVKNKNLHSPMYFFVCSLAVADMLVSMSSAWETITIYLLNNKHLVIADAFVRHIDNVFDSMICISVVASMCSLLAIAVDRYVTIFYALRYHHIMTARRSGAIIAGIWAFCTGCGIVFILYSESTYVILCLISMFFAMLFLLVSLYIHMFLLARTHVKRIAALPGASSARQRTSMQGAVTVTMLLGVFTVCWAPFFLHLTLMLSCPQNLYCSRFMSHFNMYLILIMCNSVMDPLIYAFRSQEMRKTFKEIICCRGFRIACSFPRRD
T10 sequence (P41146 whole entry): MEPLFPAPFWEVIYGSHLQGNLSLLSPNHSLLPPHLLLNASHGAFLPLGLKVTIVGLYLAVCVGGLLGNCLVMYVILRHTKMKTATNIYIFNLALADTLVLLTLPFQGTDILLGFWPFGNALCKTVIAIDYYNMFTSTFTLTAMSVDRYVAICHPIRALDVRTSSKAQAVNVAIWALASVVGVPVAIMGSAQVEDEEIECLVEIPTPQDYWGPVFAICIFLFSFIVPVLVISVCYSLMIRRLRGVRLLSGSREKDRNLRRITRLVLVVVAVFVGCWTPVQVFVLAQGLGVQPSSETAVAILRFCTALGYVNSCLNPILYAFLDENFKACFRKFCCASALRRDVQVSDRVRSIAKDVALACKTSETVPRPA
T5 sequence (P32245 whole entry): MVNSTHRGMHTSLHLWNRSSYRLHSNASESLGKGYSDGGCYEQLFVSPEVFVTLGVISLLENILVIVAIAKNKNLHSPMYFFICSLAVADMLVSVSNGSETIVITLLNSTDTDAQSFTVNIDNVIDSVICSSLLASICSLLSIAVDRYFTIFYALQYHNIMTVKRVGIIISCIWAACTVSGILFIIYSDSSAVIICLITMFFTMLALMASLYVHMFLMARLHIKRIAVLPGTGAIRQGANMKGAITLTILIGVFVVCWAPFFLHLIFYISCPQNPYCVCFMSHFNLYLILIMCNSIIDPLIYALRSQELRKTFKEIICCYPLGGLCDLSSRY
T7 sequence (Q99705 whole entry): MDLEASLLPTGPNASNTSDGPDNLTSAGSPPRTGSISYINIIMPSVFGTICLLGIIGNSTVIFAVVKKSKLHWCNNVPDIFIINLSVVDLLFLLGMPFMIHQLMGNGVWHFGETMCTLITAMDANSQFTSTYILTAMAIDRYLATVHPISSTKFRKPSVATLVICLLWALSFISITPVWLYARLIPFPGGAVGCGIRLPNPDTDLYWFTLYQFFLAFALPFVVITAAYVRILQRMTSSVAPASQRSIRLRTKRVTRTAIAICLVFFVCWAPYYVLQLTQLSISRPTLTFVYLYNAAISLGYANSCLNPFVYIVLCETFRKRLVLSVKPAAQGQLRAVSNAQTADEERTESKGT
T2 sequence (P41143 whole entry): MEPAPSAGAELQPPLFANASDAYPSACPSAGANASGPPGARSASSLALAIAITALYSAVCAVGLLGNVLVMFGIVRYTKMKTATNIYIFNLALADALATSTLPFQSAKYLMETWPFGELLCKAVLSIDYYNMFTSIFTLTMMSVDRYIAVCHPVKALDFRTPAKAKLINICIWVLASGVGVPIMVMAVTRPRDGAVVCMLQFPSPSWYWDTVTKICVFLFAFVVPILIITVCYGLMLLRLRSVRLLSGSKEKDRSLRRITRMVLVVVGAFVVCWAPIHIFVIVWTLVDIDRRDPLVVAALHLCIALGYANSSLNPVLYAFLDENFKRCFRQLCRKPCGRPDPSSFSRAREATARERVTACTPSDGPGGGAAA
T6 sequence (P35372 whole entry): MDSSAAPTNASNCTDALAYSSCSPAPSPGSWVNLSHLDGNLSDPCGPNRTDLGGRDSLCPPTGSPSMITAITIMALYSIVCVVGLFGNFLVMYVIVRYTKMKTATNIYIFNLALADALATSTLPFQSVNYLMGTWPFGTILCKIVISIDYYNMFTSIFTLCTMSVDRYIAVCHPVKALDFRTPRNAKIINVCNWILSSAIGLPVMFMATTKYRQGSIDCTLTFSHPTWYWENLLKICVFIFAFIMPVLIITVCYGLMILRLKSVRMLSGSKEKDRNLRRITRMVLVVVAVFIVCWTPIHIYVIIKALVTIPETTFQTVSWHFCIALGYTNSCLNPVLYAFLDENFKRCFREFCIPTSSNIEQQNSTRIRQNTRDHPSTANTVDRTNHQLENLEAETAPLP

CSC1O[C@H](COCc2ccccc2)[C@@H](O)[C@@H](OCc2ccc(-c3ccccc3)cc2)[C@H]1NC(=O)CCN (stereo partly shown) [compound 285]
A11: inhibition of radioligand binding, mouse urotensin (mUR2) (Mouse urotensin (mUR2); [125I]-Urotensin II): − (“−” indicates less than 50% inhibition at 10 μM) | A1: inhibition of radioligand binding, human δ-opioid (DOP) (Human δ-opioid (DOP); [3H]-Bremazocine): − (“−” indicates less than 50% inhibition at 10 μM) | A2: inhibition of radioligand binding, human κ-opioid (KOP) (Human κ-Opioid (KOP); [3H]-Diprenorphine): − (“−” indicates less than 50% inhibition at 10 μM) | A9: inhibition of radioligand binding, human neuropeptide Y (NPY-Y1) ([1]; [125I]-PYY): − (“−” indicates less than 50% inhibition at 10 μM) | A4: inhibition of radioligand binding, human melanocortin (MC4) (Human Melanocortin (MC4); [125I]-NDP-αMSH): − (“−” indicates less than 50% inhibition at 10 μM) | A7: inhibition of radioligand binding, human μ-opioid (MOP) (Human μ-opioid (MOP); [3H]-Naloxone): − (“−” indicates less than 50% inhibition at 10 μM) | A6: inhibition of radioligand binding, human melanin-concentrating hormone (MCH1) ([2]; [125I]-S36057): − (“−” indicates less than 50% inhibition at 10 μM) | A8: inhibition of radioligand binding, human neurokinin (NK1) (Human neurokinin (NK1); [125I]-Substance P): + (“+” indicates greater than 50% inhibition at 10 μM) | A5: inhibition of radioligand binding, human melanocortin (MC5) (Human melanocortin (MC5); [125I]-NDP-αMSH): − (“−” indicates less than 50% inhibition at 10 μM) | A10: inhibition of radioligand binding, human opioid (ORL1) (Human opioid (ORL1); [125I]-Nociceptin): − (“−” indicates less than 50% inhibition at 10 μM) | A3: inhibition of radioligand binding, human melanocortin (MC3) (Human Melanocortin (MC3); [125I]-NDP-αMSH): − (“−” indicates less than 50% inhibition at 10 μM)

COCC1OC(OCCc2ccccc2)C(NC(=O)CNC(=N)N)C(OCc2ccc3ccccc3c2)C1O (stereo not shown) [compound 226]
A11: inhibition of radioligand binding (Mouse urotensin (mUR2); [125I]-Urotensin II, FlashPlate): − (“−” indicates less than 50% inhibition at 10 μM) | A1: inhibition of radioligand binding (Human δ-opioid (DOP); [3H]-Bremazocine, FlashPlate): − (“−” indicates less than 50% inhibition at 10 μM) | A2: inhibition of radioligand binding (Human κ-Opioid (KOP); [3H]-Diprenorphine, filtration): − (“−” indicates less than 50% inhibition at 10 μM) | A9: inhibition of radioligand binding ([1]; [125I]-PYY, FlashPlate): − (“−” indicates less than 50% inhibition at 10 μM) | A4: inhibition of radioligand binding (Human Melanocortin (MC4); [125I]-NDP-αMSH, FlashPlate): + (“+” indicates greater than 50% inhibition at 10 μM) | A7: inhibition of radioligand binding (Human μ-opioid (MOP); [3H]-Naloxone, FlashPlate): − (“−” indicates less than 50% inhibition at 10 μM) | A6: inhibition of radioligand binding ([2]; [125I]-S36057, FlashPlate): − (“−” indicates less than 50% inhibition at 10 μM) | A8: inhibition of radioligand binding (Human neurokinin (NK1); [125I]-Substance P, filtration): + (“+” indicates greater than 50% inhibition at 10 μM) | A5: inhibition of radioligand binding (Human melanocortin (MC5); [125I]-NDP-αMSH, FlashPlate): + (“+” indicates greater than 50% inhibition at 10 μM) | A10: inhibition of radioligand binding (Human opioid (ORL1); [125I]-Nociceptin, FlashPlate): − (“−” indicates less than 50% inhibition at 10 μM) | A3: inhibition of radioligand binding (Human Melanocortin (MC3); [125I]-NDP-αMSH, FlashPlate): + (“+” indicates greater than 50% inhibition at 10 μM)

CO[C@H]1[C@H](O)[C@@H](COCc2cccc(O)c2)OC(OCc2ccc3ccccc3c2)[C@@H]1NC(=O)CCCNC(=N)N (stereo partly shown) [compound 152]
A11 radioligand binding, percentage inhibition (Mouse urotensin (mUR2); [125I]-Urotensin II): − (“−” indicates less than 50% inhibition at 10 μM) | A1 radioligand binding, percentage inhibition (Human δ-opioid (DOP); [3H]-Bremazocine): − (“−” indicates less than 50% inhibition at 10 μM) | A2 radioligand binding, percentage inhibition (Human κ-Opioid (KOP); [3H]-Diprenorphine): − (“−” indicates less than 50% inhibition at 10 μM) | A9 radioligand binding, percentage inhibition ([1]; [125I]-PYY): − (“−” indicates less than 50% inhibition at 10 μM) | A4 radioligand binding, percentage inhibition (Human Melanocortin (MC4); [125I]-NDP-αMSH): − (“−” indicates less than 50% inhibition at 10 μM) | A7 radioligand binding, percentage inhibition (Human μ-opioid (MOP); [3H]-Naloxone): + (“+” indicates greater than 50% inhibition at 10 μM) | A6 radioligand binding, percentage inhibition ([2]; [125I]-S36057): − (“−” indicates less than 50% inhibition at 10 μM) | A8 radioligand binding, percentage inhibition (Human neurokinin (NK1); [125I]-Substance P): − (“−” indicates less than 50% inhibition at 10 μM) | A5 radioligand binding, percentage inhibition (Human melanocortin (MC5); [125I]-NDP-αMSH): − (“−” indicates less than 50% inhibition at 10 μM) | A10 radioligand binding, percentage inhibition (Human opioid (ORL1); [125I]-Nociceptin): − (“−” indicates less than 50% inhibition at 10 μM) | A3 radioligand binding, percentage inhibition (Human Melanocortin (MC3); [125I]-NDP-αMSH): − (“−” indicates less than 50% inhibition at 10 μM)

CO[C@H]1[C@H](O)[C@@H](COCc2ccc(Cl)cc2)OC(OCc2ccc(-c3ccccc3)cc2)[C@@H]1NC(=O)CNC(=N)N (stereo partly shown) [compound 62]
A11 radioligand binding inhibition (Mouse urotensin (mUR2); mouse urotensin mUR2 membranes): − (“−” indicates less than 50% inhibition at 10 μM) | A1 radioligand binding inhibition (Human δ-opioid (DOP); human δ-opioid (DOP) membranes): − (“−” indicates less than 50% inhibition at 10 μM) | A2 radioligand binding inhibition (Human κ-Opioid (KOP); human κ-opioid (KOP) membranes): − (“−” indicates less than 50% inhibition at 10 μM) | A9 radioligand binding inhibition ([1]; human NPY-Y1 membranes): − (“−” indicates less than 50% inhibition at 10 μM) | A4 radioligand binding inhibition (Human Melanocortin (MC4); human melanocortin MC4 membranes): + (“+” indicates greater than 50% inhibition at 10 μM) | A7 radioligand binding inhibition (Human μ-opioid (MOP); human μ-opioid (MOP) membranes): − (“−” indicates less than 50% inhibition at 10 μM) | A6 radioligand binding inhibition ([2]; human MCH1 membranes): + (“+” indicates greater than 50% inhibition at 10 μM) | A8 radioligand binding inhibition (Human neurokinin (NK1); human neurokinin NK1 membranes): + (“+” indicates greater than 50% inhibition at 10 μM) | A5 radioligand binding inhibition (Human melanocortin (MC5); human melanocortin MC5 membranes): + (“+” indicates greater than 50% inhibition at 10 μM) | A10 radioligand binding inhibition (Human opioid (ORL1); human ORL1 membranes): + (“+” indicates greater than 50% inhibition at 10 μM) | A3 radioligand binding inhibition (Human Melanocortin (MC3); human melanocortin MC3 membranes): + (“+” indicates greater than 50% inhibition at 10 μM)

NCCCC(=O)NC1C(OCc2ccc3ccccc3c2)OC(COCc2ccc3ccccc3c2)C(O)C1OCc1ccc2ccccc2c1 (single isomer, unassigned) [compound 460]
A11: inhibition of radioligand binding (Mouse urotensin (mUR2); [125I]-Urotensin II, mouse mUR2 membranes): − (“−” indicates less than 50% inhibition at 10 μM) | A1: inhibition of radioligand binding (Human δ-opioid (DOP); [3H]-Bremazocine, human DOP membranes): − (“−” indicates less than 50% inhibition at 10 μM) | A2: inhibition of radioligand binding (Human κ-Opioid (KOP); [3H]-Diprenorphine, human KOP membranes): − (“−” indicates less than 50% inhibition at 10 μM) | A9: inhibition of radioligand binding ([1]; [125I]-PYY, human NPY-Y1 membranes): − (“−” indicates less than 50% inhibition at 10 μM) | A4: inhibition of radioligand binding (Human Melanocortin (MC4); [125I]-NDP-αMSH, human MC4 membranes, 10 µM): − (“−” indicates less than 50% inhibition at 10 μM) | A7: inhibition of radioligand binding (Human μ-opioid (MOP); [3H]-Naloxone, human MOP membranes, 10 µM): − (“−” indicates less than 50% inhibition at 10 μM) | A6: inhibition of radioligand binding ([2]; [125I]-S36057, human MCH1 membranes, 10 µM): − (“−” indicates less than 50% inhibition at 10 μM) | A8: inhibition of radioligand binding (Human neurokinin (NK1); [125I]-Substance P, human NK1 membranes): + (“+” indicates greater than 50% inhibition at 10 μM) | A5: inhibition of radioligand binding (Human melanocortin (MC5); [125I]-NDP-αMSH, human MC5 membranes): + (“+” indicates greater than 50% inhibition at 10 μM) | A10: inhibition of radioligand binding (Human opioid (ORL1); [125I]-Nociceptin, human ORL1 membranes, 10 µM): − (“−” indicates less than 50% inhibition at 10 μM) | A3: inhibition of radioligand binding (Human Melanocortin (MC3); [125I]-NDP-αMSH, human MC3 membranes, 10 µM): − (“−” indicates less than 50% inhibition at 10 μM)
